Assay results: patent publication US4401660A, “Ester derivatives of 5-O-mycaminosyl tylonolide and method of using same” (Eli Lilly and Company, priority 1981, dated 1983)

Experiments:
[1] = system: Haemophilus influenzae Holt; experiment: MIC, standard agar-dilution assay (Table II); type: cell-based; design: unit not given here; details: ampicillin-sensitive strain
Procedure: (§1) The MIC's in Table II were determined by standard agar-dilution assays. The MIC's in Table III were obtained using a conventional broth-dilution microtiter test.

[2] = system: Haemophilus influenzae R252; experiment: MIC, standard agar-dilution assay (Table II); type: cell-based; design: unit not given here; details: Haemophilus influenzae R252, ampicillin-resistant strain
Procedure: as §1

[3] = system: Staphylococcus aureus S13E; experiment: MIC, standard agar-dilution assay (Table II); type: cell-based; design: unit not given here
Procedure: as §1

[4] = system: Staphylococcus aureus V41; experiment: MIC, standard agar-dilution assay (Table II); type: cell-based; design: unit not given here; details: Staphylococcus aureus V41, penicillin-resistant strain
Procedure: as §1

[5] = system: Staphylococcus aureus X1.1; experiment: MIC, standard agar-dilution assay (Table II); type: cell-based; design: unit not given here
Procedure: as §1

[6] = system: Staphylococcus aureus X400; experiment: MIC, standard agar-dilution assay (Table II); type: cell-based; design: unit not given here; details: Staphylococcus aureus X400, methicillin-resistant strain
Procedure: as §1

[7] = system: Staphylococcus epidermidis EPI1; experiment: MIC, standard agar-dilution assay (Table II); type: cell-based; design: unit not given here
Procedure: as §1

[8] = system: Staphylococcus epidermidis EPI2; experiment: MIC, standard agar-dilution assay (Table II); type: cell-based; design: unit not given here
Procedure: as §1

[9] = system: Streptococcus Group D 9960; experiment: MIC, standard agar-dilution assay (Table II); type: cell-based; design: unit not given here
Procedure: as §1

[10] = system: Streptococcus Group D X66; experiment: MIC, standard agar-dilution assay (Table II); type: cell-based; design: unit not given here
Procedure: as §1

[11] = system: Streptococcus pneumoniae Park I; experiment: MIC, standard agar-dilution assay (Table II); type: cell-based; design: unit not given here
Procedure: as §1

[12] = system: Streptococcus pyogenes C203; experiment: MIC, standard agar-dilution assay (Table II); type: cell-based; design: unit not given here
Procedure: as §1

Mycoplasma gallisepticum = experiment: MIC, broth-dilution microtiter test (Table III); type: cell-based; design: unit not given here
Procedure: as §1

Mycoplasma hyorhinis = experiment: MIC, broth-dilution microtiter test (Table III); type: cell-based; design: unit not given here
Procedure: as §1

Mycoplasma synoviae = experiment: MIC, broth-dilution microtiter test (Table III); type: cell-based; design: unit not given here
Procedure: as §1

[13] = system: Pasteurella multocida 17E; experiment: MIC, broth-dilution microtiter test (Table III); type: cell-based; design: unit not given here; details: bovine isolate
Procedure: as §1

[14] = system: Pasteurella multocida 60A; experiment: MIC, broth-dilution microtiter test (Table III); type: cell-based; design: unit not given here; details: avian isolate
Procedure: as §1

Staphylococcus aureus = experiment: MIC, broth-dilution microtiter test (Table III); type: cell-based; design: unit not given here
Procedure: as §1

Streptococcus sp. 80 = experiment: MIC, broth-dilution microtiter test (Table III); type: cell-based; design: unit not given here
Procedure: as §1

Pasteurella multocida = experiment: Treatment of Pasteurella infections in chicks (Table V); type: in vivo, one-day-old chicks; details: Pasteurella multocida, sc, 4 h; 30 mg/kg by subcutaneous injection one and four hours post challenge; read-out: Deaths in Treated Chicks/Number Treated (converted)
Procedure: Certain OMT ester derivatives are active in vivo against Pasteurella infections. Table V summarizes the results of tests in which the ester derivatives were administered to one-day-old chicks at a dosage level of 30 mg/kg by subcutaneous injection one and four hours post challenge of the chicks with Pasteurella multocida (0.1 ml of a 10^-3 dilution of a 20-hour tryptose broth culture of avian P. multocida given subcutaneously). All nonmedicated infected chicks (ten in each control group) died within 24 hours of Pasteurella challenge.

[15] = system: Pasteurella haemolytica 22C; experiment: MIC, broth-dilution microtiter test (Table III); type: cell-based; design: unit not given here
Procedure: as §1

[16] = system: Pasteurella haemolytica 23C; experiment: MIC, broth-dilution microtiter test (Table III); type: cell-based; design: unit not given here
Procedure: as §1

[17] = system: Pasteurella haemolytica 41D; experiment: MIC, broth-dilution microtiter test (Table III); type: cell-based; design: unit not given here
Procedure: as §1

[18] = system: Pasteurella multocida 22A; experiment: MIC, broth-dilution microtiter test (Table III); type: cell-based; design: unit not given here
Procedure: as §1

[19] = system: Pasteurella multocida 68C; experiment: MIC, broth-dilution microtiter test (Table III); type: cell-based; design: unit not given here
Procedure: as §1

Row | SMILES | minimal inhibitory concentration (MIC) [1] | minimal inhibitory concentration (MIC) [2] | minimal inhibitory concentration (MIC) [3] | minimal inhibitory concentration (MIC) [4] | minimal inhibitory concentration (MIC) [5] | minimal inhibitory concentration (MIC) [6] | minimal inhibitory concentration (MIC) [7] | minimal inhibitory concentration (MIC) [8] | minimal inhibitory concentration (MIC) [9] | minimal inhibitory concentration (MIC) [10] | minimal inhibitory concentration (MIC) [11] | minimal inhibitory concentration (MIC) [12] | minimal inhibitory concentration (MIC) (Mycoplasma gallisepticum) | minimal inhibitory concentration (MIC) (Mycoplasma hyorhinis) | minimal inhibitory concentration (MIC) (Mycoplasma synoviae) | minimal inhibitory concentration (MIC) [13] | minimal inhibitory concentration (MIC) [14] | minimal inhibitory concentration (MIC) (Staphylococcus aureus) | minimal inhibitory concentration (MIC) (Streptococcus sp. 80) | mortality at 30 mg/kg (Pasteurella multocida) [%] | also measured
1 | CCC1OC(=O)CC(O)C(C)C(OC2OC(C)C(OC(C)=O)C(N(C)C)C2OC(C)=O)C(CC=O)CC(C)C(=O)C=CC(C)=CC1COC(=O)CC(C)C (centres unmarked) [Compound 21, 2',4'-Di-O-acetyl-23-O-i-valeryl-OMT] | 2 | 8 | 0.5 | 0.5 | 0.5 | 1 | 0.5 | 0.5 | 0.5 | 0.5 | 0.5 | 0.5 | < 0.05 | 0.78 | < 0.05 | 1.56 | 1.56 | 0.39 | 0.195 | 100 | –
2 | CCCC(=O)OCC1C=C(C)C=CC(=O)C(C)CC(CC=O)C(OC2OC(C)C(OC(C)=O)C(N(C)C)C2OC(C)=O)C(C)C(O)CC(=O)OC1CC (centres unmarked) [Compound 15] | 2 | 2 | 0.25 | 0.5 | 0.25 | 0.5 | 0.25 | 0.5 | 0.5 | 0.5 | 0.25 | 0.25 | < 0.05 | 0.78 | < 0.05 | 1.56 | 1.56 | 0.39 | 0.097 | 100 | –
3 | CCCCC(=O)OCC1C=C(C)C=CC(=O)C(C)CC(CC=O)C(OC2OC(C)C(O)C(N(C)C)C2O)C(C)C(O)CC(=O)OC1CC (centres unmarked) [Compound 20] | 2 | 2 | 0.25 | 0.25 | 0.25 | 0.5 | 0.25 | 0.25 | 0.5 | 0.5 | 0.06 | 0.25 | < 0.05 | 3.12 | < 0.05 | 1.56 | 3.12 | 0.39 | 0.39 | 0 | –
4 | CCCCC(=O)OCC1C=C(C)C=CC(=O)C(C)CC(CC=O)C(OC2OC(C)C(OC(C)=O)C(N(C)C)C2OC(C)=O)C(C)C(O)CC(=O)OC1CC (centres unmarked) [Compound 19] | 2 | 2 | 0.25 | 0.25 | 0.25 | 0.5 | 0.125 | 0.125 | 0.5 | 0.5 | 0.03 | 0.25 | < 0.05 | 6.25 | < 0.05 | 1.56 | 3.12 | 0.39 | < 0.05 | 100 | –
5 | CCC1OC(=O)CC(O)C(C)C(OC2OC(C)C(OC(C)=O)C(N(C)C)C2OC(C)=O)C(CC=O)CC(C)C(=O)C=CC(C)=CC1COS(C)(=O)=O (centres unmarked) [Compound 45] | – | – | 1 | 2 | 1 | 2 | 0.5 | 2 | 1 | 1 | – | – | 0.39 | 3.12 | 0.39 | 3.12 | 1.56 | 0.78 | 0.195 | 100 | minimal inhibitory concentration (MIC) [15]: 6.25; minimal inhibitory concentration (MIC) [16]: 3.12; minimal inhibitory concentration (MIC) [17]: 6.25; minimal inhibitory concentration (MIC) [18]: 3.12; minimal inhibitory concentration (MIC) [19]: 1.56
6 | CCCCCCCC(=O)OCC1C=C(C)C=CC(=O)C(C)CC(CC=O)C(OC2OC(C)C(O)C(N(C)C)C2OC(C)=O)C(C)C(O)CC(=O)OC1CC (centres unmarked) [Compound 25] | – | – | 0.25 | 0.25 | 0.25 | 0.5 | 0.25 | 0.5 | 0.5 | 1 | – | – | < 0.05 | 0.78 | 1.56 | 6.25 | 6.25 | 0.097 | 0.195 | 100 | minimal inhibitory concentration (MIC) [15]: 12.5; minimal inhibitory concentration (MIC) [16]: 12.5; minimal inhibitory concentration (MIC) [17]: 12.5; minimal inhibitory concentration (MIC) [18]: 25; minimal inhibitory concentration (MIC) [19]: 6.25
